Results reported in patent US12391697B2, “Condensed bi-heterocycles as inhibiting agents for Bruton's tyrosine kinase” (BIOGEN MA INC., priority 2019, dated 2025).
pIC50: −log10 of the molar value. Where a name gives a salt, the structure may show the parent alone.

biological target: BTK (Homo sapiens (Human), UniProt Q06187); test: In Vitro BTK Kinase Assay: Btk-PolyGAT-LS Assay; type: biochemical; conditions: active BTK enzyme 0.25 nM, ATP 10 μM, polyGAT 100 nM, 30 minutes
Summary of the method: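 Recombinant BTK (0.25 nM) phosphorylating 100 nM polyGAT at 10 μM ATP in Tris-HCl pH 7.5 buffer with MgCl2, DTT, Triton X-100 and casein, 30 min, then EDTA stop.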

Chain of BTK (Q06187 whole entry): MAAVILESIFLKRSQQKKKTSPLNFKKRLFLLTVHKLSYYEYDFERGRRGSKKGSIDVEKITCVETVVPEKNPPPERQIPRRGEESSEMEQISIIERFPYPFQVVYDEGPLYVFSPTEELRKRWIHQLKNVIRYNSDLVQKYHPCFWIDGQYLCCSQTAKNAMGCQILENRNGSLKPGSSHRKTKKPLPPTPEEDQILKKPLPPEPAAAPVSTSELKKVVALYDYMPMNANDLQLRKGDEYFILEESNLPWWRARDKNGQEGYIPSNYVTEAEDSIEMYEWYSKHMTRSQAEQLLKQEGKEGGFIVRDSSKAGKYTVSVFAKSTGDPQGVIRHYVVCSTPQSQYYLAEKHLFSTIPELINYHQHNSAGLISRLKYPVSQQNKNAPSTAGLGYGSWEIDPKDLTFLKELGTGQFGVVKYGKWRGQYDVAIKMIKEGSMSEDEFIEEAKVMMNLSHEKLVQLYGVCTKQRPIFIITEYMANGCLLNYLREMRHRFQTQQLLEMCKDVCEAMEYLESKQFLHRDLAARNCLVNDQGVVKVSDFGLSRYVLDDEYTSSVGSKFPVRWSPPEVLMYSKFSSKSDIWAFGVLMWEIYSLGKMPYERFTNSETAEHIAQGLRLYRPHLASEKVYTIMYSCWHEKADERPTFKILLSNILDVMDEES

Compound | pIC50
Cc1cc(-c2ncnn3cc(C4=CCOCC4)cc23)ccc1CNC(=O)c1cnc(C(C)(C)C)o1 (single isomer, unassigned) [Example 125] | ≥ 9.00
CC(C)(C)n1cc(C(=O)NCc2ccc(-c3ncnn4cc(C5=CCOCC5)cc34)cc2C(F)F)cn1 [Example 208] | ≥ 9.00
Cc1cc(-c2ncnn3cc(-c4cnsc4)cc23)ccc1CNC(=O)c1noc(C(C)(C)C)n1 [Example 172] | < 8.00
Cn1cc(-c2cc3c(-c4ccc(CNC(=O)c5coc(C(C)(C)C)n5)c(C(F)F)c4)ncnn3c2)cn1 [Example 211] | ≥ 9.00
CC(C)(C)c1nc(C(=O)NCc2ccc(-c3ncnn4cc(N5CCOCC5)cc34)cc2C(F)F)co1 [Example 198] | ≥ 9.00
CC(C)(C)c1nc(C(=O)NCc2cc(F)c(-c3ncnn4cccc34)cc2Cl)no1 [Example 132] | 8.00 to 9.00
Cc1cc(-c2ncnn3cc(-c4cnn(C)c4C)cc23)ccc1CNC(=O)c1coc(C(C)(C)C)n1 [Example 130] | ≥ 9.00
Cc1cc(-c2c(C#N)cnn3cccc23)ccc1CNC(=O)c1noc(C(C)(C)C)n1 [Example 53] | < 8.00
Cc1c(CNC(=O)c2noc(C(C)(C)C)n2)cc(F)c(-c2ncnn3cccc23)c1F [Example 63, 5-(tert-butyl)-N-(3,5-difluoro-2-methyl-4-(pyrrolo[2,1-f][1,2,4]triazin-4-yl)benzyl)-1,2,4-oxadiazole-3-carboxamide hydrochloride] | 8.00 to 9.00
CC(C)(C)n1cc(C(=O)NCc2ccc(-c3ncnn4cc(N5CCOCC5)cc34)cc2Cl)nn1 [Example 162] | 8.00 to 9.00
CC(C)(C)n1cc(C(=O)NCc2ccc(-c3ncnn4cc(N5CCOCC5)cc34)cc2C(F)(F)F)nn1 [Example 187] | ≥ 9.00
Cc1cc(-c2ccnc3ccnn23)ccc1CNC(=O)c1noc(C(C)(C)C)n1 [Example 50] | 8.00 to 9.00
Cc1c(CNC(=O)c2noc(C(C)(C)C)n2)ccc(-c2ncnn3cc(-c4cnn(C)c4)cc23)c1F [Example 112] | ≥ 9.00
Cc1c(CNC(=O)c2cnn(C(C)(C)C)c2)ccc(-c2ncnn3cc(N4CCOCC4)cc23)c1F [Example 88] | ≥ 9.00
CC(C)(C)c1noc(C(=O)NCc2ccc(-c3ncnn4cc(N5CCOCC5)cc34)cc2CC(F)F)n1 [Example 65, 3-(tert-butyl)-N-(2-(2,2-difluoroethyl)-4-(6-morpholinopyrrolo[2,1-f][1,2,4]triazin-4-yl)benzyl)-1,2,4-oxadiazole-5-carboxamide hydrochloride] | ≥ 9.00
Cc1cc(-c2ncnn3cc(N4CCOC(C)(C)C4)cc23)ccc1CNC(=O)c1noc(C(C)(C)C)n1 [Example 78, 5-(tert-butyl)-N-(4-(6-(2,2-dimethylmorpholino)pyrrolo[2,1-f][1,2,4]triazin-4-yl)-2-methylbenzyl)-1,2,4-oxadiazole-3-carboxamide hydrochloride] | ≥ 9.00
C[C@@H](NC(=O)c1nnc(C(C)(C)C)o1)c1ccc(-c2ncnn3cc(N4CCOCC4)cc23)cc1Cl [Example 204] | 8.00 to 9.00
Cc1cc(-c2ncnn3cc(Br)cc23)ccc1CNC(=O)c1noc(C(C)(C)C)n1 [Example 51] | 8.00 to 9.00
Cc1cc(-c2ncnn3cc(N4CC5CC(C4)N5C)cc23)ccc1CNC(=O)c1noc(C(C)(C)C)n1 [Example 148] | 8.00 to 9.00
Cc1cc(-c2ncnn3cc(N4CCN(C)[C@H](C)C4)cc23)ccc1CNC(=O)c1noc(C(C)(C)C)n1 (single isomer, unassigned) [Example 117] | ≥ 9.00
Cc1cc(-c2ncnn3cc(-c4cnn(C)c4)cc23)ccc1CNC(=O)c1cn(C(C)(C)C)nn1 [Example 166] | ≥ 9.00

Compound | pIC50
CC(C)(C)c1nc(C(=O)NCc2ccc(-c3ncnn4cccc34)cc2C(F)F)no1 [Example 181] | 8.00 to 9.00
Cc1cc(-c2cc3c(-c4ccc(CNC(=O)c5noc(C(C)(C)C)n5)c(C)c4)ncnn3c2)ccn1 [Example 227] | ≥ 9.00
CC(C)(C)n1cc(C(=O)NCc2ccc(-c3ncnn4cc(N5CCOCC5)cc34)c(F)c2Cl)cn1 [Example 155] | ≥ 9.00
Cc1cc(-c2ncnn3cc(C(=O)N4CCN(C)CC4)cc23)ccc1CNC(=O)c1noc(C(C)(C)C)n1 [Example 216] | < 8.00
Cc1c(CNC(=O)c2ccn(C(C)(C)C)n2)ccc(-c2ncnn3cc(N4CCOCC4)cc23)c1F [Example 89] | 8.00 to 9.00
Cc1cc(-c2ncnn3ccnc23)ccc1CNC(=O)c1noc(C(C)(C)C)n1 [Example 52] | 8.00 to 9.00
Cc1cc(-c2ncnn3cc(C(=O)N(C)C)cc23)ccc1CNC(=O)c1noc(C(C)(C)C)n1 [Example 67, 5-(tert-butyl)-N-(4-(6-(dimethylcarbamoyl)pyrrolo[2,1-f][1,2,4]triazin-4-yl)-2-methylbenzyl)-1,2,4-oxadiazole-3-carboxamide hydrochloride] | ≥ 9.00
Cn1cc(-c2cc3c(-c4ccc(CNC(=O)c5nnc(C(C)(C)C)o5)c(C(F)F)c4)ncnn3c2)cn1 [Example 191] | ≥ 9.00
Cc1cc(-c2ncnn3cc(N4C[C@@H](F)[C@@H](F)C4)cc23)ccc1CNC(=O)c1noc(C(C)(C)C)n1 [Example 122] | ≥ 9.00
Cc1cc(-c2ncnn3cc(-c4ccccn4)cc23)ccc1CNC(=O)c1noc(C(C)(C)C)n1 [Example 230] | ≥ 9.00
Cc1cc(-c2ncnn3cccc23)ccc1CNC(=O)c1nnn(C(C)(C)C)n1 [Example 214] | 8.00 to 9.00
CC(C)(C)n1cc(C(=O)NCc2ccc(-c3ncnn4cc(N5CCOCC5)cc34)c(F)c2C2CC2)nn1 [Example 164] | 8.00 to 9.00
Cn1cc(-c2cc3c(-c4ccc(CNC(=O)c5noc(C(C)(C)C)n5)c(CC(F)F)c4F)ncnn3c2)cn1 [Example 233] | ≥ 9.00
Cc1cc(-c2ncnn3cc(N4CCN(C)CC4)cc23)ccc1CNC(=O)c1nc(C(C)(C)C)no1 [Example 69, 3-(tert-butyl)-N-(2-methyl-4-(6-(4-methylpiperazin-1-yl)pyrrolo[2,1-f][1,2,4]triazin-4-yl)benzyl)-1,2,4-oxadiazole-5-carboxamide] | ≥ 9.00
COc1c(CNC(=O)c2ccn(C(C)(C)C)n2)ccc(-c2ncnn3cc(N4CCOCC4)cc23)c1F [Example 202] | 8.00 to 9.00
COc1c(CNC(=O)c2cn(C(C)(C)C)nn2)ccc(-c2ncnn3cc(-c4cnn(C)c4)cc23)c1F [Example 200] | 8.00 to 9.00
Cc1cc(-c2ncnn3cc(-c4cnn(C)c4)cc23)ccc1CNC(=O)c1nnn(C(C)(C)C)n1 [Example 113] | ≥ 9.00
Cc1cc(-c2ncnn3cc(-c4cnn(C)c4)cc23)ccc1CNC(=O)c1noc(C(C)(C)C)n1 [Example 80, 5-(tert-butyl)-N-(2-methyl-4-(6-(1-methyl-1H-pyrazol-4-yl)pyrrolo[2,1-f][1,2,4]triazin-4-yl)benzyl)-1,2,4-oxadiazole-3-carboxamide] | ≥ 9.00
Cc1cc(-c2ncnn3cc(N4CC[C@H](F)C4)cc23)ccc1CNC(=O)c1noc(C(C)(C)C)n1 (single isomer, unassigned) [Example 141] | ≥ 9.00
Cn1cc(-c2cc3c(-c4ccc(CNC(=O)c5nc(C(C)(C)C)no5)c(CC(F)F)c4F)ncnn3c2)cn1 [Example 66, 3-(tert-butyl)-N-(2-(2,2-difluoroethyl)-3-fluoro-4-(6-(1-methyl-1H-pyrazol-4-yl)pyrrolo[2,1-f][1,2,4]triazin-4-yl)benzyl)-1,2,4-oxadiazole-5-carboxamide hydrochloride] | ≥ 9.00
Cc1cc(-c2ncnn3cc(-c4cnn(C)c4)cc23)ccc1CNC(=O)c1nnc(C(C)(C)C)o1 [Example 165] | ≥ 9.00
